Laboratory results published in article PMC8484168 (Cancer Chemotherapy and Pharmacology, 2021).
Read-outs that look alike come from different tables or passages of the source.

What was measured:
[1] = Plasma PK of rosuvastatin and oral contraceptives with and without rucaparib (phase 1 DDI study, noncompartmental analysis); assay type: in vivo, human; conditions: for Cmax / AUC(0-inf) / AUC(0-t) / half-life / Vd/F / Tmax: human; for Cmax / AUC(0-inf) / AUC(0-t) / half-life / Vd/F: po; for Tmax: read-out: tmax, Median (range); for change of median tmax with rucaparib: with vs without rucaparib; for detected in human plasma up to (postdose): 30 µg dose, LC–MS/MS
Source text: This was a 2-part, phase 1, open-label, 2-arm DDI study in patients with advanced solid tumors. In Part 1 of the study, patients were screened for eligibility from day − 28 to − 2 and visited the study site from day − 1 to 23 (Fig. 1). […] To check steady-state plasma concentrations for rucaparib, a blood sample was collected prior to the dosing of rucaparib on days 5, 9, 11, 15, and 19–23.
Other PK parameters, calculated for the probe drugs, included half-life (t1/2), tmax, apparent total clearance of drug after oral administration (CL/F), and apparent volume of distribution during terminal phase (VZ/F). The PK parameter calculated for rucaparib at steady state was trough plasma concentration (Cmin). PK parameters were calculated by noncompartmental analysis using Phoenix WinNonlin, version 8.1 (Certara, Princeton, NJ).
Details are provided in Online Resource 1.
The LC consisted of a Gemini NX C18 column (2 x 50 mm, 3 μm, Phenomenex, Torrance, CA) and was eluted with a gradient consisting of 0.1% acetic acid in water as mobile phase A and with 100% acetonitrile as mobile phase B at an initial flow rate of 0.5 mL/min at room temperature. The MS/MS consisted of an AB SCIEX API5000 system and was operated with Analyst version 1.6.2 in TurboIonSpray and positive ionization mode. […] The concentration range for quantitation was 0.1–100 ng/mL.
Separation between potential metabolites and interfering endogenous compounds was achieved by ultra-high performance liquid chromatography with a CSH C18 column at 40°C and gradient elution using 0.1% formic acid in water as mobile phase A and acetonitrile as mobile phase B, operating at an initial flow rate of 0.800 mL/min. A triple quadrupole mass spectrometer (Triple Quad 6500) equipped with a turbo ion spray source was used for detection in positive ion mode.

[2] = DDI analysis: geometric mean ratio of probe drug PK with versus without rucaparib; assay type: in vivo, human; conditions: Arm B; steady-state rucaparib
Source text: The DDI analysis population included patients who completed the DDI assessment per protocol and had sufficient PK data to calculate Cmax and AUC of the probe drug with and without rucaparib. […] With the assumption that intrapatient PK variability would be 35% for the probe drugs, a total enrollment of 32 patients was planned for this study: 16 for Arm A and 16 for Arm B. […] The primary PK parameters were natural log-transformed before assessment with a paired t test.

[3] = plasma, 600 mg, with rucaparib 600 mg BID (day 19), single oral dose, plasma, read-out: AUC0–inf, GM (%CV)
[4] = plasma, 600 mg, with rucaparib 600 mg BID (day 19), single oral dose, plasma, read-out: AUC0–inf, Mean (SD)
[5] = plasma, 600 mg, with rucaparib 600 mg BID (day 19), single oral dose, plasma, read-out: AUC0–inf, Median (range)
[6] = plasma, 600 mg, with rucaparib 600 mg BID (day 19), single oral dose, plasma, read-out: AUC0–last, GM (%CV)
[7] = plasma, 600 mg, with rucaparib 600 mg BID (day 19), single oral dose, plasma, read-out: AUC0–last, Mean (SD)
[8] = plasma, 600 mg, with rucaparib 600 mg BID (day 19), single oral dose, plasma, read-out: AUC0–last, Median (range)
[9] = plasma, 600 mg, with rucaparib 600 mg BID (day 19), single oral dose, plasma, read-out: Cmax, GM (%CV)
[10] = plasma, 600 mg, with rucaparib 600 mg BID (day 19), single oral dose, plasma, read-out: Cmax, Median (range)
[11] = plasma, 600 mg, with rucaparib 600 mg BID (day 19), single oral dose, plasma, read-out: t1/2, GM (%CV) (converted)
[12] = plasma, 600 mg, with rucaparib 600 mg BID (day 19), single oral dose, plasma, read-out: t1/2, Mean (SD) (converted)
[13] = plasma, 600 mg, with rucaparib 600 mg BID (day 19), single oral dose, plasma, read-out: t1/2, Median (range) (converted)
[14] = plasma, 600 mg, with rucaparib 600 mg BID (day 19), single oral dose, read-out: VZ/F, GM (%CV)
[15] = plasma, 600 mg, with rucaparib 600 mg BID (day 19), single oral dose, read-out: VZ/F, Mean (SD)
[16] = plasma, 600 mg, with rucaparib 600 mg BID (day 19), single oral dose, read-out: VZ/F, Median (range)
[17] = plasma, without rucaparib (day 1), single oral dose, plasma, PK analysis population, read-out: Cmax, Mean (SD)
[18] = plasma, without rucaparib (day 1), single oral dose, plasma, read-out: AUC0–inf, GM (%CV)
[19] = plasma, without rucaparib (day 1), single oral dose, plasma, read-out: AUC0–inf, Mean (SD)
[20] = plasma, without rucaparib (day 1), single oral dose, plasma, read-out: AUC0–inf, Median (range)
[21] = plasma, without rucaparib (day 1), single oral dose, plasma, read-out: AUC0–last, Mean (SD)
[22] = plasma, without rucaparib (day 1), single oral dose, plasma, read-out: AUC0–last, Median (range)
[23] = plasma, without rucaparib (day 1), single oral dose, plasma, read-out: Cmax, GM (%CV)
[24] = plasma, without rucaparib (day 1), single oral dose, plasma, read-out: Cmax, Median (range)
[25] = plasma, without rucaparib (day 1), single oral dose, plasma, read-out: t1/2, GM (%CV) (converted)
[26] = plasma, without rucaparib (day 1), single oral dose, plasma, read-out: t1/2, Mean (SD) (converted)
[27] = plasma, without rucaparib (day 1), single oral dose, plasma, read-out: t1/2, Median (range) (converted)
[28] = plasma, without rucaparib (day 1), single oral dose, read-out: VZ/F, GM (%CV)
[29] = plasma, without rucaparib (day 1), single oral dose, read-out: VZ/F, Mean (SD)
[30] = plasma, without rucaparib (day 1), single oral dose, read-out: VZ/F, Median (range)
[31] = without rucaparib (day 1), single oral dose, plasma
[32] = with rucaparib 600 mg BID (day 19), single oral dose
[33] = without rucaparib (day 1), single oral dose

SMILES	AUC(0-inf) [1, 3]	AUC(0-inf) [1, 4]	AUC(0-inf) [1, 5]	AUC(0-t) [1, 6]	AUC(0-t) [1, 7]	AUC(0-t) [1, 8]	Cmax [1, 9]	Cmax [1, 10]	half-life [1, 11]	half-life [1, 12]	half-life [1, 13]	Vd/F [1, 14]	Vd/F [1, 15]	Vd/F [1, 16]	Cmax [1, 17]	AUC(0-inf) [1, 18]	AUC(0-inf) [1, 19]	AUC(0-inf) [1, 20]	AUC(0-t) [1, 21]	AUC(0-t) [1, 22]	other results
C#C[C@]1(O)CC[C@H]2[C@@H]3CCC4=CC(=O)CC[C@@H]4[C@H]3CC[C@@]21CC [levonorgestrel]	102 ng·h/mL	109 ng·h/mL	87.3 ng·h/mL	77.5 ng·h/mL	86 ng·h/mL	80.4 ng·h/mL	3.43 ng/mL	3.48 ng/mL	46.6 h	50 h	43.6 h	77.6 L	82.8 L	85.6 L	3.32 ng/mL	64 ng·h/mL	72.7 ng·h/mL	55.4 ng·h/mL	59.7 ng·h/mL	45.3 ng·h/mL	Cmax ([1]; plasma, 600 mg, with rucaparib 600 mg BID (day 19), single oral dose, plasma, PK analysis population, read-out: Cmax, Mean (SD)): 3.77 ng/mL; AUC(0-t) ([1]; plasma, without rucaparib (day 1), single oral dose, plasma, read-out: AUC0–last, GM (%CV)): 52.9 ng·h/mL; Cmax [1, 23]: 3.17 ng/mL; Cmax [1, 24]: 3.29 ng/mL; half-life [1, 25]: 38.5 h; half-life [1, 26]: 41.1 h; half-life [1, 27]: 37.1 h; Vd/F [1, 28]: 103 L; Vd/F [1, 29]: 113 L; Vd/F [1, 30]: 114 L; Tmax ([1]; with rucaparib 600 mg BID (day 19), single oral dose, plasma): 1.5 h; Tmax [1, 31]: 1.51 h; CL/F, Mean (SD) [1, 32]: 1.57 (0.531) L/h; CL/F, Median (range) [1, 32]: 1.72 (0.701–2.39) L/h; change of median tmax with rucaparib [1]: remained the same; CL/F, Mean (SD) [1, 33]: 2.57 (1.01) L/h; CL/F, Median (range) [1, 33]: 2.71 (0.891–3.84) L/h; AUC increase with rucaparib [2]: ~1.6 fold; Cmax increase with rucaparib [2]: < 1.25 fold
C#C[C@]1(O)CC[C@H]2[C@@H]3CCc4cc(O)ccc4[C@H]3CC[C@@]21C [ethinylestradiol]	1.41 ng·h/mL	1.49 ng·h/mL	1.37 ng·h/mL	1.15 ng·h/mL	1.24 ng·h/mL	1.18 ng·h/mL	0.0784 ng/mL	0.0756 ng/mL	24.8 h	30 h	27.1 h	653 L	684 L	620 L	0.0792 ng/mL	0.962 ng·h/mL	0.994 ng·h/mL	1 ng·h/mL	0.804 ng·h/mL	0.775 ng·h/mL	detected in human plasma up to (postdose) ([1]; with rucaparib): ≤ 72 h; detected in human plasma up to (postdose) ([1]; without rucaparib): up to 48 h; Cmax [1, 23]: 0.0732 ng/mL; Cmax [1, 24]: 0.0734 ng/mL; half-life [1, 25]: 15.9 h; half-life [1, 26]: 17 h; half-life [1, 27]: 18.1 h; Vd/F [1, 28]: 772 L; Vd/F [1, 29]: 792 L; Vd/F [1, 30]: 772 L; Tmax [1, 31]: 1 h; Cmax, Mean (SD) ([1]; with rucaparib 600 mg BID (day 19), single oral dose, plasma, PK analysis population): 0.0893 (0.0443) ng/mL; change of median tmax with rucaparib [1]: 0.5 h; AUC increase with rucaparib [2]: approximately 1.4 fold; Cmax increase with rucaparib [2]: < 1.25 fold
